Where two headings read alike, the source gives them in different places.
Legend:
[1] = tested on: green peach aphid (Myzus persicae); assay: Myzus test (MYZUPE spray treatment); format: in vivo; conditions: application rate 100 g/ha, after 6 days, Chinese cabbage leaf discs
[2] = logP by HPLC on reversed-phase columns (C18), EEC Directive 79/831 Annex V.A8; format: physicochemical
Method: The logP values reported in the table above and in the Preparation Examples were determined in accordance with EEC Directive 79/831 Annex V.A8 by HPLC (High Performance Liquid Chromatography) on reversed-phase columns (C18), with the following methods:
The LC-MS determination in the acidic range is carried out at pH 2.7 using the mobile phases 0.1% aqueous formic acid and acetonitrile (contains 0.1% formic acid), linear gradient from 10% acetonitrile to 95% acetonitrile
Calibration was carried out using unbranched alkan-2-ones (having from 3 to 16 carbon atoms) with known logP values (the logP values were determined by the retention times using linear interpolation between two successive alkanones).

[3] = tested on: caterpillars of the armyworm (Spodoptera frugiperda); assay: Spodoptera frugiperda test (SPODFR spray treatment); format: in vivo; conditions: 168 h; for inhibition at 100 g/ha: 7 d, comparison with prior art
Method: After 7 days, the effect in % is determined.

Boophilus microplus = Boophilus microplus test (BOOPMI injection); format: in vivo; conditions: application rate 20 μg/animal, injection into abdomen, after 7 days
Method: (§1) Solvent: dimethyl sulphoxide
The active compound solution is injected into the abdomen (Boophilus microplus), and the animals are transferred into dishes and stored in a climate-controlled room.
The activity is assessed by […] of fertile eggs. 100% means that none of the ticks has laid any fertile eggs.

Lucilia cuprina larvae = assay: Lucilia cuprina test (LUCICU); format: in vivo; conditions: application rate 100 ppm, after 48 h
Text: as §1
Vessels containing horse meat treated with the active compound preparation of the desired concentration are populated with about 20 Lucilia cuprina larvae.

[4] = tested on: larvae of the mustard beetle (Phaedon cochleariae); assay: Phaedon test (PHAECO spray treatment); conditions: 168 h; for pest or weed control at 100 g/ha / pest or weed control at 500 g/ha: read-out: activity (beetle larvae killed); for inhibition at 100 g/ha: read-out: % Activity, PHAECO
[5] = read-out: activity (caterpillars killed)
[6] = reversed-phase HPLC column (C18), pH 2.7, HPLC reversed-phase C18, acidic range pH 2.7, 0.1% aqueous formic acid/acetonitrile, table of compounds of formula (I), read-out: log P
[7] = application rate 100 g/ha, after 7 days, read-out: activity (caterpillars killed)

In the case of `CNC(=O)c1cc(C#N)cc(C)c1NC(=O)c1cc(C(O)Cn2nnc(C(F)(F)F)n2)nn1-c1ncccc1Cl` (stereo not shown) [Example 63], the “activity (aphids killed)” value [1] is reported as 80%, the “log P” value ([2]; pH 2.7) is reported as 2.27 and the chromatographic logP ([2]; pH 2.7, log P) is reported as 2.01. The pest or weed control at 100 g/ha [3, 5] was 100% and the “efficacy (no fertile eggs laid)” value (Boophilus microplus) was 100%.
In the case of `Cc1cc(Cl)cc(C(=O)NC(C)C)c1NC(=O)c1cc(C#Cc2ccc(OC(F)(F)F)cc2)nn1-c1ncccc1Cl` [Example 11], the chromatographic logP ([2]; pH 2.7, log P) is reported as 4.79, the pest or weed control at 100 g/ha [3, 5] is reported as 100% and the “efficacy (kill of larvae)” value (Lucilia cuprina larvae) is reported as 90%. It also gave a pest or weed control at 100 g/ha [4] of 100%.
`CNC(=O)c1cc(C#N)cc(C)c1NC(=O)c1cc(C(=O)c2ccc(C(F)(F)F)nc2)nn1-c1ncccc1Cl` [Example 18] showed a chromatographic logP ([2]; pH 2.7, log P) of 3.01, an inhibition at 100 g/ha [3] of 100% and an inhibition at 100 g/ha [4] of 100%. For the same compound, the pest or weed control at 100 g/ha [4] was 100%.
In the case of `CNC(=O)c1cc(C#N)cc(C)c1NC(=O)c1cc(CN2CC(C(F)(F)F)C(c3ccc(Cl)cc3)=N2)nn1-c1ncccc1Cl` (stereo not shown) [Example 68], the chromatographic logP ([2]; pH 2.7, log P) is reported as 3.66, the pest or weed control at 100 g/ha [3, 5] is reported as 100% and the pest or weed control at 100 g/ha [4] is reported as 100%.
With `Cc1cc(C#N)cc(C(=O)NC(C)C)c1NC(=O)c1cc(Nc2ccc(C(F)(F)F)cc2)nn1-c1ncccc1Cl` [Example 74] the chromatographic logP ([2]; pH 2.7, log P) was 3.7, the pest or weed control at 100 g/ha [3, 5] was 100% and the pest or weed control at 100 g/ha [4] was 100%.
`CNC(=O)c1cc(C#N)cc(C)c1NC(=O)c1cc(C#Cc2ccc(OC(F)(F)F)cc2)nn1-c1ncccc1Cl` [Example 13] showed a chromatographic logP ([2]; pH 2.7, log P) of 3.88 and a pest or weed control at 100 g/ha [4] of 100%.
Compound `Cc1cc(C#N)cc(C(=O)NC(C)C)c1NC(=O)c1cc(Nc2cc(C(F)(F)F)cc(C(F)(F)F)c2)nn1-c1ncccc1Cl` [Example 73] has a pest or weed control at 100 g/ha [3, 5] of 100% and a pest or weed control at 100 g/ha [4] of 100%.
For `CNC(=O)c1cc(Cl)cc(C)c1NC(=O)c1cc(CN(C=O)c2ccccc2NS(C)(=O)=O)nn1-c1ncccc1Cl` [Example 32], the “activity (aphids killed)” value [1] was 80% and the chromatographic logP ([2]; pH 2.7, log P) was 2.09.
With `CCOc1ccc(C(=O)c2cc(C(=O)Nc3c(C)cc(C#N)cc3C(=O)NC)n(-c3ncccc3Cl)n2)cn1` [Example 17] the chromatographic logP ([2]; pH 2.7, log P) was 2.99, the pest or weed control at 100 g/ha [3, 5] was 100% and the pest or weed control at 100 g/ha [4] was 100%.
Work on `CNC(=O)c1cc(C#N)cc(C)c1NC(=O)c1cc(Oc2ccc(C(F)(F)F)cn2)nn1-c1ncccc1Cl` [Example 77] yielded a chromatographic logP ([2]; pH 2.7, log P) of 2.89, a pest or weed control at 100 g/ha [3, 5] of 100% and a pest or weed control at 100 g/ha [4] of 100%.
Work on `Cc1cc(C#N)cc(C(=O)NC(C)C)c1NC(=O)c1cc(Nc2ccc(C(F)(F)F)cn2)nn1-c1ncccc1Cl` [Example 67] yielded a chromatographic logP ([2]; pH 2.7, log P) of 3.31, a pest or weed control at 100 g/ha [3, 5] of 100% and a pest or weed control at 100 g/ha [4] of 100%.
With `CNC(=O)c1cc(Cl)cc(C)c1NC(=O)c1cc(C#Cc2ccc(OC(F)(F)F)cc2)nn1-c1ncccc1Cl` [Example 10] the chromatographic logP ([2]; pH 2.7, log P) was 4.29, the pest or weed control at 100 g/ha [3, 5] was 100% and the pest or weed control at 100 g/ha [4] was 100%.
For `Cc1cc(C#N)cc(C(N)=O)c1NC(=O)c1cc(C#Cc2ccc(OC(F)(F)F)cc2)nn1-c1ncccc1Cl` [Example 12], the chromatographic logP ([2]; pH 2.7, log P) was 3.58, the pest or weed control at 100 g/ha [3, 5] was 100% and the “efficacy (kill of larvae)” value (Lucilia cuprina larvae) was 90%.
For `Cc1cc(C#N)cc(C(=O)NC(C)C)c1NC(=O)c1cc(Oc2ccc(C(F)(F)F)cn2)nn1-c1ncccc1Cl` [Example 76], the chromatographic logP ([2]; pH 2.7, log P) was 3.4, the pest or weed control at 100 g/ha [3, 5] was 100% and the pest or weed control at 100 g/ha [4] was 100%.
`CNC(=O)c1cc(C#N)cc(C)c1NC(=O)c1cc(/C=C/n2nnc(C(F)(F)F)n2)nn1-c1ncccc1Cl` [Example 64] showed a chromatographic logP ([2]; pH 2.7, log P) of 3.17, a pest or weed control at 100 g/ha [3, 5] of 100% and a pest or weed control at 100 g/ha [4] of 100%.
In the case of `Cc1cc(C#N)cc(C(=O)NC(C)C)c1NC(=O)c1cc(C(=O)c2nc(C(F)(F)F)cs2)nn1-c1ncccc1Cl` [Example 21], the “activity (aphids killed)” value [1] is reported as 90%, the chromatographic logP ([2]; pH 2.7, log P) is reported as 3.24 and the pest or weed control at 100 g/ha [3, 5] is reported as 100%. For the same compound, the “efficacy (kill of larvae)” value (Lucilia cuprina larvae) was 100% and the pest or weed control at 100 g/ha [4] was 100%.
Work on `Cc1cc(C#N)cc(C(=O)NC(C)(C)C)c1NC(=O)c1cc(C(=O)c2nc(C(F)(F)F)cs2)nn1-c1ncccc1Cl` [Example 14] yielded a chromatographic logP ([2]; pH 2.7, log P) of 3.57, a pest or weed control at 100 g/ha [3, 5] of 100% and a pest or weed control at 100 g/ha [4] of 100%.
For `CNC(=O)c1cc(C#N)cc(C)c1NC(=O)c1cc(C(=O)c2nc(C(F)(F)F)cs2)nn1-c1ncccc1Cl` [Example 20], the chromatographic logP ([2]; pH 2.7, log P) was 2.77, the pest or weed control at 500 g/ha [3, 5] was 100% and the pest or weed control at 500 g/ha [4] was 100%.
Compound `Cc1cc(C#N)cc(C(=O)NC(C)(C)C)c1NC(=O)c1cc(C(=O)c2ccc(C(F)(F)F)nc2)nn1-c1ncccc1Cl` [Example 19] has a chromatographic logP ([2]; pH 2.7, log P) of 3.85, a pest or weed control at 500 g/ha [3, 5] of 100% and a pest or weed control at 500 g/ha [4] of 100%.
In the case of `CNC(=O)c1cc(C#N)cc(C)c1NC(=O)c1cc(C(=O)Cn2nnc(C(F)(F)F)n2)nn1-c1ncccc1Cl` [Example 15], the “activity (aphids killed)” value [1] is reported as 90%, the chromatographic logP ([2]; pH 2.7, log P) is reported as 2.89 and the pest or weed control at 20 g/ha [3, 5] is reported as 100%. The “efficacy (no fertile eggs laid)” value (Boophilus microplus) was 100%, the “efficacy (kill of larvae)” value (Lucilia cuprina larvae) was 100% and the pest or weed control at 100 g/ha [4] was 100%.
In the case of `CNC(=O)c1cc(Cl)cc(C)c1NC(=O)c1cc(CN(C=O)c2ccc(Cl)cc2NS(C)(=O)=O)nn1-c1ncccc1Cl` [Example 33], the “activity (aphids killed)” value [1] is reported as 90%, the chromatographic logP ([2]; pH 2.7, log P) is reported as 2.49 and the pest or weed control at 100 g/ha [3, 5] is reported as 100%.
In the case of `Cc1cc(Cl)cc(C(=O)NC(C)C)c1NC(=O)c1cc(CN(C)S(=O)(=O)c2cc(C(F)(F)F)cc(C(F)(F)F)c2)nn1-c1ncccc1Cl` [Example 55], the chromatographic logP [2, 6] is reported as 4.5 and the pest or weed control at 100 g/ha [3, 7] is reported as 100%.
In the case of `CNC(=O)c1cc(Cl)cc(C)c1NC(=O)c1cc(C2=NOC(c3cc(Cl)cc(Cl)c3)(C(F)(F)F)C2)nn1-c1ncccc1Cl` (stereo not shown) [Example 1], the pest or weed control at 100 g/ha [3, 5] is reported as 100% and the pest or weed control at 100 g/ha [4] is reported as 83%.
`Cc1cc(Br)cc(C(=O)NC(C)C)c1NC(=O)c1cc(C(=O)Nc2ccc(C(F)(F)F)cc2)nn1-c1ncccc1Cl` [Example 3] showed a chromatographic logP ([2]; pH 2.7, log P) of 4.02 and a pest or weed control at 100 g/ha [4] of 100%.
With `CNC(=O)c1cc(Cl)cc(C)c1NC(=O)c1cc(N2CCN(c3cc(C(F)(F)F)cc(C(F)(F)F)c3)C2=O)nn1-c1ncccc1Cl` [Example 22] the chromatographic logP [2, 6] was 4.43, the pest or weed control at 100 g/ha [3, 7] was 100% and the “efficacy (no fertile eggs laid)” value (Boophilus microplus) was 100%. For the same compound, the “efficacy (kill of larvae)” value (Lucilia cuprina larvae) was 100% and the pest or weed control at 100 g/ha [4] was 100%.
`CNC(=O)c1cc(C#N)cc(C)c1NC(=O)c1cc(Nc2cc(C(F)(F)F)c(C(F)(F)F)cn2)nn1-c1ncccc1Cl` [Example 71] showed a chromatographic logP ([2]; pH 2.7, log P) of 3.5, a pest or weed control at 100 g/ha [3, 5] of 100% and a pest or weed control at 100 g/ha [4] of 100%.
With `CNC(=O)c1cc(C#N)cc(C)c1NC(=O)c1cc(CSc2ccc(C(F)(F)F)cn2)nn1-c1ncccc1Cl` [No. 1 known WO 2007/144100, reference compound] the inhibition at 100 g/ha [3] was 0% and the inhibition at 100 g/ha [4] was 0%.
